Assay results reported in US10342853B2, “Leptin active peptide having D helix region mutations, coding gene thereof, and application thereof” (SHANGHAI YUANXIN BIOCHEMICAL SCIENCE AND TECHNOLOGY CO. LTD., priority 2015, dated 2019).

System: 3T3-L1 preadipocyte line
Assay: In-vitro lipid-lowering (adipocyte-degrading) activity analysis, MTT detection
Format: cell-based
Experimental: Lipid degradation activity of the synthesized leptin active peptide having helix D region mutation is analyzed on a cellular level by taking a 3T3-L1 preadipocyte line as a model. Specific operations are as follows:
b: an early differentiation stage D0-D2 (0-2nd day of induced differentiation); and
c: a mature adipocyte stage D9 (the 9th day of induced differentiation);
a. leptin active peptide having helix D region mutation (PEP-D): diluted to 10^−3M with purified water and preserved at −20 degree C. for later use. After an experiment is started, working concentrations have 3 concentration gradients, that is, 10^−6M, 10^−9M and 10^−11M;
b. positive control. I: H-LEP, recombinant human-derived leptin protein (10221-HNAE, Beijing Sino Biological Inc.), diluted to 10^−6M with purified water and preserved at −20 degree C. for later use. After an experiment is started, the working concentration is 10^−9M;
c. positive control 2: Ros (Rosiglitazone, 82408, Sigma), diluted to a stock solution with a concentration of 2518 μM with DMSO and preserved at −20 degree C. for later use. After an experiment is started, the stock solution is diluted to a working solution of 0.5 μM with cell culture fluid;
d. negative control (Control): equivalent quantity of PBS
(1) Inoculating 3T3-L1 preadipocytes in corning cell bind 96-well plates (totally inoculated with 3 plates, respectively plate a, plate b and plate c), wherein the inoculation density is 4500 cells/well; and marking, and standing and culturing at 37 degree C. in a 5% CO2 incubator. Each sample of each plate is operated repeatedly for 3 times, and the whole experiment is repeated for 3 times;
(2) Continuously culturing for 48 hours after the cells are merged to 100% (enabling the cells to exit from a growth cycle, and starting induced differentiation); and
i, taking out the plate a; respectively adding different amounts of leptin active peptide having helix D region mutation (PEP-D) to enable the working concentrations to be respectively 3 concentration gradients, that is, 10^−6M, 10^−9M and 10^−11M; setting 2 positive controls, a negative control (PBS) and a blank control (3 repeated holes are set for each sample), and continuously standing and culturing at 37 degree C. in the 5% CO2 incubator.
ii, when culturing to 45 hours (that is, 3 hours before the end of drug treatment), taking out the plate a, and measuring MTT (preadipocytes). Specific operations: adding 20 μL of 5 mg/mL of MTT solution into each well, continuously standing and culturing at 37 degree C. in the 5% CO2 incubator for 3 hours, sucking and discarding the culture solution in the wells, adding 150 μL of DMSO into each well, horizontally shaking for 10 min, detecting a light absorption value at 492 nm by a microplate reader, and drawing a growth curve;
i, taking out the plate b; adding the differentiation induced liquid I (D0); respectively adding the leptin active peptide having helix D region mutation (PEP-D); setting 2 positive controls, a negative control (PBS) and a blank control (3 repeated holes are set for each sample), and continuously standing and culturing at 37 degree C. in the 5% CO2 incubator.
ii, when culturing to 45 hours (that is, 3 hours before the end of drug treatment), taking out the plate b, and measuring MTT (at the early differentiation stage, D0-D2). Specific operations: adding 20 μL, of 5 mg/mL of MTT solution into each well; continuously standing and culturing at 37 degree C. in the 5% CO2 incubator for 3 hours; sucking and discarding the culture solution in the wells; adding 150 μL of DMSO into each well; horizontally shaking for 10 min; detecting a light absorption value at 492 nm by the microplate reader; and drawing a growth curve;
i, taking out the plate c; adding the differentiation induced liquid I (D0) into each well; and continuously standing and culturing at 37 degree C. in the 5% CO2 incubator for 48 hours; […]

H-LEP: recombinant human-derived leptin protein (10221-HNAE, Beijing Sino Biological Inc.), positive control
adipocyte lysis activity vs. negative control (Control, PBS) (MTT, FIG. 2 mark a, P<0.05, H-LEP 10^−9M, Ros 0.5 μM): obviously better than that of the negative control

STEVVALDGLQGSLQTMLLQLEYS (An amino acid sequence of the leptin active peptide having helix D region mutation) [PEP-D]
adipocyte lysis activity vs. H-LEP (MTT, FIG. 2 mark b, P<0.05): obviously better than that of the H-LEP | adipocyte lysis activity vs. Ros (MTT, FIG. 2 mark c, P<0.05): obviously better than that of the Ros | concentration dependence of lipid-lowering activity (MTT, PEP-D at 10^−6M, 10^−9M and 10^−11M): obvious concentration dependence | concentration with optimal lipid-lowering effect (MTT, of 10^−6M, 10^−9M and 10^−11M tested, on a whole): 10^−9 M | dependence of lipid-lowering activity on cell differentiation period (MTT, preadipocytes, D0-D2, D9): dependence in a cell differentiation period | adipocyte-degrading activity compared with positive controls H-LEP and Ros (MTT, three cell differentiation stages (preadipocytes, early differentiation D0-D2, mature adipocyte D9), H-LEP 10^−9M, Ros 0.5 μM): obviously better than that of positive control-human-derived leptin protein (H-LEP) and a commercially available drug rosiglitazone (Ros) | cell lysis effects at three stages (preadipocytes stage, differentiation stage (D0-D2), mature adipocyte stage (D9)): obvious cell lysis effects
